Experimental data as given in ChEMBL document CHEMBL5244273, “Tuberculosis: An Overview of the Immunogenic Response, Disease Progression, and Medicinal Chemistry Efforts in the Last Decade toward the Development of Potential Drugs for Extensively Drug-Resistant Tuberculosis Strains” (J Med Chem, 2021).
≈ marks a conversion by molar mass, not a printed value.

Assays:
[1] = system: Mycobacterium tuberculosis; experiment: Antimycobacterial activity against extensively drug resistant Mycobacterium tuberculosis H37Rv; format: functional
[2] = system: Mycobacterium tuberculosis; experiment: Antimycobacterial activity against multidrug resistant Mycobacterium tuberculosis H37Rv; format: functional
[3] = system: Mycobacterium tuberculosis; experiment: Potentiation of ethionamide induced antibacterial activity against Mycobacterium tuberculosis W4-E1 harboring EthA Gly343Ala mutant expressing GFP incubated for 5 days by fluorescence based analysis; format: functional, organism-based
[4] = system: Mycobacterium tuberculosis; experiment: Antimycobacterial activity against rifampicin resistant Mycobacterium tuberculosis by broth dilution method; format: functional
[5] = system: Mycobacterium tuberculosis; experiment: Antimycobacterial activity against isoniazid, rifampicin, amikacin and moxifloxacin resistant Mycobacterium tuberculosis by broth dilution method; format: functional
[6] = system: Mycobacterium tuberculosis; experiment: Antimycobacterial activity against isoniazid and rifampicin resistant Mycobacterium tuberculosis by broth dilution method; format: functional

CC(=O)N1N=C(c2ccc3oc(-c4ccc(O)cc4)nc3c2)CC1c1cccs1 (stereo not drawn)
MIC [1]: 12.5 µg/mL (≈ 31 µM) | MIC [2]: 3.12 µg/mL (≈ 7.73 µM)

O=C(CCC(F)(F)F)N1CCC(F)(c2ccnc(Cl)c2)CC1
EC50 [3]: < 1300 nM

NC(=O)N1N=C(c2ccc3oc(N)nc3c2)CC1c1cccs1 (stereo not drawn)
MIC [1]: 50 µg/mL (≈ 153 µM) | MIC [2]: 12.5 µg/mL (≈ 38.2 µM)

Cc1cc(-c2cn(C[C@@]3(C)Cn4cc([N+](=O)[O-])nc4O3)nn2)ccc1F
MIC [4]: 1 µg/mL (≈ 2.79 µM) | MIC [5]: 2 µg/mL (≈ 5.58 µM) | MIC [6]: 4 µg/mL (≈ 11.2 µM)

O=C(CCC(F)(F)F)N1CC(C2CCCCC2)C1
EC50 [3]: < 75 nM

O=C(CCC(F)(F)F)N1CCC(F)(c2ccnc(F)c2)CC1
EC50 [3]: < 1300 nM

Cc1ccc(OCc2cn(C[C@@]3(C)Cn4cc([N+](=O)[O-])nc4O3)nn2)cc1
MIC [4]: 8 µg/mL (≈ 21.6 µM) | MIC [5]: 8 µg/mL (≈ 21.6 µM) | MIC [6]: 2 µg/mL (≈ 5.4 µM)

CC(=O)N1N=C(c2ccc3oc(N)nc3c2)CC1c1cccs1 (stereo not drawn)
MIC [1]: 25 µg/mL (≈ 76.6 µM) | MIC [2]: 6.25 µg/mL (≈ 19.1 µM)

CC(=O)N1N=C(c2ccc3oc(NC(=O)c4ccccc4)nc3c2)CC1c1cccs1 (stereo not drawn)
MIC [1]: 50 µg/mL (≈ 116 µM) | MIC [2]: 12.5 µg/mL (≈ 29 µM)

CCc1ccc(OCc2cn(C[C@@]3(C)Cn4cc([N+](=O)[O-])nc4O3)nn2)cc1
MIC [4]: 4 µg/mL (≈ 10.4 µM) | MIC [5]: 4 µg/mL (≈ 10.4 µM) | MIC [6]: 2 µg/mL (≈ 5.2 µM)

O=C(CCC(F)(F)F)N1CCC(F)(c2cncc(Cl)c2)CC1
EC50 [3]: < 1300 nM

C[C@]1(Cn2cc(CN3CCOCC3)nn2)Cn2cc([N+](=O)[O-])nc2O1
MIC [4]: 2 µg/mL (≈ 5.72 µM) | MIC [5]: 2 µg/mL (≈ 5.72 µM) | MIC [6]: 2 µg/mL (≈ 5.72 µM)

Cc1cccc(OCc2cn(C[C@@]3(C)Cn4cc([N+](=O)[O-])nc4O3)nn2)c1
MIC [4]: 1 µg/mL (≈ 2.7 µM) | MIC [5]: 2 µg/mL (≈ 5.4 µM) | MIC [6]: 1 µg/mL (≈ 2.7 µM)

CC(=O)N1N=C(c2ccc3oc(NC(=O)CCl)nc3c2)CC1c1cccs1 (stereo not drawn)
MIC [1]: 12.5 µg/mL (≈ 31 µM) | MIC [2]: 3.12 µg/mL (≈ 7.74 µM)

O=C(CCC(F)(F)F)N1CCC2(CC1)CC(Br)=NO2
EC50 [3]: < 140 nM

Cc1ccc(OCCc2cn(C[C@@]3(C)Cn4cc([N+](=O)[O-])nc4O3)nn2)cc1
MIC [4]: 1 µg/mL (≈ 2.6 µM) | MIC [5]: 0.25 µg/mL (≈ 0.65 µM) | MIC [6]: 0.25 µg/mL (≈ 0.65 µM)

Cc1ccc(SCc2cn(C[C@@]3(C)Cn4cc([N+](=O)[O-])nc4O3)nn2)cc1
MIC [4]: 0.25 µg/mL (≈ 0.647 µM) | MIC [5]: 2 µg/mL (≈ 5.18 µM) | MIC [6]: 0.5 µg/mL (≈ 1.29 µM)

C[C@]1(Cn2cc(-c3ccc(C(F)(F)F)cc3)nn2)Cn2cc([N+](=O)[O-])nc2O1
MIC [4]: 4 µg/mL (≈ 10.1 µM) | MIC [5]: 2 µg/mL (≈ 5.07 µM) | MIC [6]: 2 µg/mL (≈ 5.07 µM)

O=C(CCC(F)(F)F)N1CC(c2cccc(Cl)c2)C1
EC50 [3]: < 75 nM

O=C(CCC(F)(F)F)N1CCC(F)(c2cncc(C(F)(F)F)c2)CC1
EC50 [3]: < 1300 nM

CC(=O)N1N=C(c2ccc3oc(S)nc3c2)CC1c1cccs1 (stereo not drawn)
MIC [1]: > 100 µg/mL | MIC [2]: 25 µg/mL (≈ 72.8 µM)

C[C@]1(Cn2cc(-c3ccc(F)cc3)nn2)Cn2cc([N+](=O)[O-])nc2O1
MIC [4]: 2 µg/mL (≈ 5.81 µM) | MIC [5]: 2 µg/mL (≈ 5.81 µM) | MIC [6]: 2 µg/mL (≈ 5.81 µM)

O=C(CCC(F)(F)F)N1CCC(F)(c2cc(C(F)(F)F)ccn2)CC1
EC50 [3]: < 1300 nM

COC1=NOC2(CCN(C(=O)CCCl)CC2)C1
EC50 [3]: < 140 nM

O=C(CCCl)N1CCC2(CC1)CC(C(F)(F)F)=NO2
EC50 [3]: < 140 nM

CCC1=NOC2(CCN(C(=O)CCC(F)(F)F)CC2)C1
EC50 [3]: < 140 nM

O=C(CCC(F)(F)F)N1CCC(c2ccnc(Cl)c2)CC1
EC50 [3]: < 1300 nM

CCOC1=NOC2(CCN(C(=O)CCC(F)(F)F)CC2)C1
EC50 [3]: < 140 nM

O=C(CCC(F)(F)F)N1CCC2(CC1)CC(OCC(F)(F)F)=NO2
EC50 [3]: < 140 nM

O=C(CCC(F)(F)F)N1CCC(c2cnc(F)c(F)c2)CC1
EC50 [3]: < 1300 nM

C[C@]1(Cn2cc(COc3cccc(F)c3)nn2)Cn2cc([N+](=O)[O-])nc2O1
MIC [4]: 2 µg/mL (≈ 5.34 µM) | MIC [5]: 2 µg/mL (≈ 5.34 µM) | MIC [6]: 2 µg/mL (≈ 5.34 µM)

CCCOC1=NOC2(CCN(C(=O)CCC(F)(F)F)CC2)C1
EC50 [3]: < 140 nM

CCCCCCOC1=NOC2(CCN(C(=O)CCC(F)(F)F)CC2)C1
EC50 [3]: < 140 nM

O=C(CCC(F)(F)F)N1CCC(c2ncc(F)cc2F)CC1
EC50 [3]: < 1300 nM

C[C@]1(Cn2cc(-c3ccc(F)cc3F)nn2)Cn2cc([N+](=O)[O-])nc2O1
MIC [4]: 4 µg/mL (≈ 11 µM) | MIC [5]: 4 µg/mL (≈ 11 µM) | MIC [6]: 1 µg/mL (≈ 2.76 µM)

O=C(CCCC(F)(F)F)N1CCC(c2cncc(Cl)c2)CC1
EC50 [3]: < 1300 nM

C[C@]1(Cn2cc(-c3ccc(OC(F)(F)F)cc3)nn2)Cn2cc([N+](=O)[O-])nc2O1
MIC [4]: 2 µg/mL (≈ 4.87 µM) | MIC [5]: 1 µg/mL (≈ 2.44 µM) | MIC [6]: 2 µg/mL (≈ 4.87 µM)

O=C(CCC(F)(F)F)N1CCC(c2cncc(Cl)c2)C1 (stereo not drawn)
EC50 [3]: < 1300 nM
